The conditions of data set [1]: in horses; cited from earlier work.
The conditions of data set [2]: cited from earlier work.
For data set [3] the following is noted: in cats; cited from earlier work.
For data set [4] the following is noted: in adult dogs; cited from earlier work.
For data set [5] the following is noted: cited from earlier work. The source holds these as a separate data set.
For data set [6] the following is noted: in turkeys; cited from earlier work.
The test system of a further data set is HRT cells. The settings on record: concentrations of up to 1.0 microg/mL.
A further data set concerns MDBK cells. The settings on record: concentrations of up to 1.0 microg/mL.
A further data set relates to MARC 145 cells. The settings on record: concentrations of up to 1.0 microg/mL.
In a further data set the test system is rhinovirus. As to the kind of experiment: Antiviral activity against rhinovirus. The class given is cell-based. The settings on record: concentrations and assays employed herein.
Another data set has as its system cells. The note with it: up to concentrations of 1 microg/mL.
Another data set relates to murine coronavirus. The settings on record: reported; cited from earlier work.
In data set [7] the test system is Human adenovirus (HAdv-C5). Kind of data set: Antiviral activity against human adenovirus. The class given is cell-based.
The test system of a further data set is dengue fever virus. Kind of data set: Antiviral activity against dengue fever virus. In kind it is cell-based.
The test system of data set [8] is bovine viral diarrhea virus (BVDV). The class given is cell-based. The settings on record: 30 min preincubation, 0.1 to 1.0 ug/ml oleandrin.
Data set [9] has the same test system. In kind it is cell-based. The settings on record: MDBK cells, 48-h time point.
In the next data set the test system is bovine coronavirus (BCV). The class given is cell-based. The settings on record: HRT cells, therapeutic.
Data set [10] concerns Kyasanur forest disease virus. In kind it is cell-based.
The subject of data set [11] is Alkhuma hemorrhagic fever virus. The class given is cell-based.
Data set [12] relates to Omsk hemorrhagic fever virus. The class given is cell-based.
Another data set relates to BT cells. The note with it: concentrations of up to 1.0 microg/mL.

The values below come from patent US20240261312A1 (priority 2021, published 2024).

Several values for one entry are separate records, joined by “and”; a condition that tells them apart may be missing. Equal entries are not always repeated. Where two headings read alike, the source gives them in different places.

As a reminder, the half-life is how long it takes for the measured level to halve.

Turning to `C[C@H]1O[C@@H](O[C@H]2[C@@H](O)C[C@H](O[C@H]3[C@@H](O)C[C@H](O[C@H]4CC[C@@]5(C)[C@H](CC[C@@H]6[C@@H]5C[C@@H](O)[C@]5(C)[C@@H](C7=CC(=O)OC7)CC[C@]65O)C4)O[C@@H]3C)O[C@@H]2C)C[C@H](O)[C@@H]1O` [digoxin], the half-life is 16 to 18 h and 10 to 23 h in data set [1]; 5 to 7 h in data set [2] (in calves); 7 to 9 h in data set [2] (in cattle); 9 to 12 h in data set [3]; 4 to 6 h in data set [4]; 13 to 15 h in [5] (in ewes and lambs). Further, the half-life in data set [5] (in sheep) is 7 to 8 h; in data set [6], 10 to 12 h.

Take `CO[C@H]1C[C@H](O[C@H]2CC[C@@]3(C)[C@H](CC[C@@H]4[C@@H]3CC[C@]3(C)[C@@H](C5=CC(=O)OC5)[C@@H](OC(C)=O)C[C@]43O)C2)O[C@@H](C)[C@@H]1O` [oleandrin]: the “toxicity to HRT cells” value with HRT cells is listed as “not toxic”. Further, in the data set on MDBK cells, the “toxicity to MDBK cells” value is reported as “not toxic”. Also, the “toxicity to MARC 145 cells” value in the data set with MARC 145 cells is given as “not toxic”. Moreover, in the data set on rhinovirus, the “antiviral activity (inhibition of viral replication)” value was “inactive”. Besides, in the data set with cells, the “toxicity by release of lactate dehydrogenase” value is given as “no additional toxicity over control vehicle”. For the same compound, the antiviral activity entry (in the data set on murine coronavirus; in data set [7]; with dengue fever virus; in data set [10]; in data set [11]; in data set [12]) was “inactive” each time. The “inhibition of infectivity of progeny” value in data set [8] is listed as 85-93%. The “reduction of viral infectivity relative to control” value in [9] is listed as 98-100%. Further, the “concentration range over which efficacious” value in the data set with bovine coronavirus (BCV) was ≥ 0.01 µg/mL. For the same compound, in the data set on BT cells, the “toxicity to BT cells” value is recorded as “not toxic”.
